Results taken from patent publication US20060234919A1, “Use” (priority 2001, published 2006).

Key:
[1] = tested on: carrageenan induced edema; test: carrageenan induced edema of the rat hindpaw (plethysmometer); type: in vivo; conditions: for carrageenan induced edema, percentage increase from pre-treatment values in hindpaw volume: 1000 μg/kg s.c., p<0.05
Method: Male Sprague-Dawley rats (260-300 g for s.c. injected and 340-380 g for i.c.v. injected) were used (B&K Universal A B, Sollentuna, Sweden). The animals arrived at least one week before experiments and were housed three-four per cage (except animals provided with i.c.v. cannulas that were housed individually) with free access to food (R36, Ewos, Södertälje, Sweden) and water. The light schedule was a 12/12 h light/dark cycle, and ambient temperature was 20±2° C.
Oxytocin and the oxytocin antagonist (1-deamino-2-D-Tyr-(OEt)-4-Thr-8-Orn-oxytocin) (Ferring, Malmö, Sweden) were dissolved in physiological saline and injected in a volume of 1 ml/kg s.c. in the dorsal neck. Dexamethasone (Decadron®, Merck, Sharp & Dome, USA) was administered intramuscularly (i.m.). Oxytocin given i.c.v. was dissolved in a volume of 5 μl physiological saline and slowly injected over a period of 1 minute through the i.c.v. guide cannula via a 25 G stain-less-steel injection needle connected to a 10 μl Hamilton syringe via a polyethylene tube. Controls received saline in the same amounts.
The model of inflammation used, the carrageenan induced edema, is a commonly used model for studies of inflammation and for testing novel anti-inflammatory drugs (Winter C A, Risley E A, Nuss G W. Carrageenan-induced edema in hind paw of the rat as an assay for anti-inflammatory drugs. Proc Soc Exp Biol Med 1962; 111:544-7). To produce acute inflammation, carrageenan, 2 mg in 0.1 ml saline, was injected s.c. into the plantar region of the rat right hindpaw.
The rats were treated s.c. with oxytocin (1.0, 10, 100 or 1000 μg/kg (n=8 in each group) or saline (n=8+8) immediately before the carrageenan injection. The edema of the right hindpaw was measured (volume in ml) using a plethysmometer (Ugo Basile, type 7150, Florence, Italy) before treatment, half an hour after, one hour after, and then every hour up to 6 or 10 hours after treatment.
The results are presented as means±SD. Statistical analysis was performed by means of a 1-way ANOVA, followed by Fisher's test for post-hoc comparisons. In the analysis of myeloperoxidase accumulation, a Student's t-test was used. P-values of 0.05 or less were regarded as statistically significant.
The rats were treated s.c. with oxytocin (1000 μg/kg) and the oxytocin antagonist (1000 μg/kg) (the antagonist was given 30 minutes before oxytocin) (n=8), the oxytocin antagonist alone (1000 μg/kg) (n=8) or saline (n=8) immediately before the carrageenan injection. Measurements as in Example 1.
The rats were treated i.c.v. with oxytocin (1.0 μg/kg) (n=6) or saline (n=7) immediately before the carrageenan injection. Measurements as in Example 1. The animals were anaesthetised with sodiumpentobarbital (50 mg/kg) (Apoteksbolaget, Sweden) injected intraperitoneally (i.p.). The scull was uncovered, a hole was drilled in the right parietal bone and a guide cannula (21 G) was fixed stereotactically to the scull by means of acrylic dental cement. The coordinates were 1.00 mm posterior and 1.30 mm lateral to the bregma. […] The injection needles (25 G) reached 3.80 mm below the dura mater, with the tip of the needle in the right lateral ventricle. The animals were allowed one week of recovery after the operation. At the end of the experiment, the placement of the guide cannula was checked by injection of 2 μl of toluidine blue.
The rats were treated i.m. with dexamethasone (10 mg/kg) (n=6) or saline (n=6) immediately before the carrageenan injection. The edema of the right hindpaw was measured using the plethysmometer before treatment, and at 2, 4 and 6 hours after treatment.

[2] = tested on: magnesium deficiency-induced dermatosis; test: atopic dermatitis-like symptoms in hypomagnesaemic hairless rats; type: in vivo, rat
Method: Male hairless rats (Ico:OFA hr/hr) were obtained from Iffa Credo (Lyon, France) immediately after weaning and housed under conventional standardised conditions in polycarbonate cages with wood chip bedding in a room with 12:12 h light/dark cycle, 24±1° C. The rats were fed with a standard maintenance diet low in magnesium (Altromin, Lage, Germany, C10350; 0.012% Mg^2+/kg dry matter) and demonised water was supplied ad libitum. This diet rendered the animals hypomagnesaemic. Magnesium (mean±SD, mmol/l) in serum fell to 0.58±0.23 on day 4, 0.36±0.18 on day 10, and to the lowest value (0.24±0.11) on day 15 on the diet. The lowest concentration was maintained up to the termination of the experiments. Under these conditions, the onset of clinical signs was after 6-8 days on the diet. The first signs were pronounced reddening and swelling of both ear lobes in all animals. […] Simultaneously with the onset of erythema, the rats began to scratch intensively and bite themselves, causing erosions and excoriations. Head, trunk, paws and tail were uniformly and intensely reddened within 2 days after the onset of signs. This stage was followed by the development of small papules and irregularly shaped plaques 1-2 cm in diameter on the trunk. The skin lesions and the signs of pruritus were most pronounced after 10-11 days on the diet, and were then constant for approximately 4 days. This acute stage was then followed by a decrease in general erythema and, subsequently, by the remission of papules and plaques within approximately 5 days. However, complete clearance was not observed.
Drug, formulations and treatment regimens: For topical administration, the oxytocin was dissolved in ethanol/propylene glycol (1 mg/ml).
The treatment was performed either unilaterally with the active drug on the right ear and with the vehicle contralaterally or bilaterally on both ears with oxytocin and vehicle, respectively. Therapeutic treatment was started immediately after clinical signs had fully developed and was given twice daily for 3 consecutive days. Prophylactic application was started on day 3 on the diet (i.e. 3-5 days before the expected onset of signs) and was given once daily for 7 days until day 9. Active drug or vehicle was applied in volumes of 20 μl to both sides of the ears.
For assessment of the therapeutic efficacy of oxytocin the animals were examined clinically once daily during the treatment period and for a further 7 days (topical treatment). Prophylactic activity was determined by daily examinations performed during the treatment period and a further 9 days. A score index (scale 0-3) for ear lesions was applied: 0, no change; 1, slight edematous, erythematous swelling; 2, moderate edematous, erythematous swelling; 3, pronounced edematous, erythematous swelling. In all experiments, the skin lesions were evaluated clinically by a single investigator unaware of the treatment allocation.

Oxytocin
effect on carrageenan induced paw edema ([1]; 1.0 μg/kg i.c.v., p=0.13): did not decrease the paw edema | effect on carrageenan induced edema ([1]; 1.0 μg/kg s.c.): No effect | effect on carrageenan induced edema ([1]; 10 μg/kg s.c.): No effect | effect on carrageenan induced edema ([1]; 100 μg/kg s.c., 4-10 hours after the injection): reduced the edema significantly | carrageenan induced edema, percentage increase from pre-treatment values in hindpaw volume ([1]; 1 hour after the injection, saline controls 43±11%): 21±16% | carrageenan induced edema, percentage increase from pre-treatment values in hindpaw volume ([1]; 2 hours after the injection, saline controls 61±22%): 30±17% | carrageenan induced edema, percentage increase from pre-treatment values in hindpaw volume ([1]; 3 hours after the injection, saline controls 79±21%): 41 ±16% | hindpaw volume compared to controls ([1]; oxytocin 1000 μg/kg s.c. with oxytocin antagonist 1000 μg/kg s.c. given 30 minutes before, 1-10 hours after carrageenan): significant reduction of the hindpaw volume | hindpaw volume compared to controls ([1]; oxytocin 1000 μg/kg s.c. with oxytocin antagonist 1000 μg/kg s.c., at 24 hours): significant difference was gone | sum of daily scores (ear lesions, scale 0-3) from day 3 to 10 ([2]; prophylactic topical, once daily day 3 to 9, vehicle-treated ears 9.2±0.7): 2.4±1.1 | time after the last dose until which signs remained suppressed ([2]; therapeutic, bilateral application, signs reappeared 4 or 5 days after the last dose): 3 days | local erythematous swelling of the ears ([2]; therapeutic, bilateral application, within 1 day after the first dose): significantly inhibited | local erythematous swelling of the ear ([2]; therapeutic, epicutaneously on one ear, 1 mg/ml, within 1 day after the start of treatment): significantly reduced local erythematous swelling | systemic effect (distant erythematous lesions on the trunk and pruritus) ([2]; topical dose applied on the ears): no systemic effect
